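Compound exposure: 48 hours, 5 concentrations, 96-well plates. GI50: concentration for 50% inhibition of growth.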 The source made the active and inactive calls. No stated cut-off is given here; in the data, active = GI50 up to about 1.1 µM and inactive = higher.
Assays:
Test in all cases: inhibition of tumour cell growth, NCI panel, 48 h
[1] = system: U-251
[2] = system: HCT-116
[3] = system: KM12
[4] = system: SF-268
[5] = system: SF-295
[6] = system: RXF 393
[7] = system: SK-MEL-28
[8] = system: SK-MEL-2
[9] = system: SN12C
[10] = system: OVCAR-3
[11] = system: NCI-H460
[12] = system: NCI-H23
[13] = system: SF-539
[14] = system: HT-29
[15] = system: HCC 2998
[16] = system: SNB-75
[17] = system: CAKI-1

Measured: GI50

O=C(CO)CC(=O)C(=O)Nc1ccccc1
inactive: [1] > 100 µM | [2] > 100 µM | [3] > 100 µM | [4] > 100 µM | [5] > 100 µM | [6] > 100 µM | [7] > 100 µM | [8] > 100 µM | [9] > 100 µM | [10] > 100 µM | [11] > 100 µM | [12] > 100 µM | [13] > 100 µM | [14] > 100 µM | [15] > 100 µM

CSc1nc(C)cc(=O)n1C1OC(COC(C)=O)C(OC(C)=O)C(OC(C)=O)C1OC(C)=O (stereo not given)
inactive: [1] > 100 µM | [2] > 100 µM | [3] > 100 µM | [4] > 100 µM | [5] > 100 µM | [7] > 100 µM | [8] 53.3 µM | [9] > 100 µM | [10] > 100 µM | [11] > 100 µM | [12] > 100 µM | [14] > 100 µM | [15] > 100 µM | [16] 61.5 µM

C=CCCC(O)c1cc(C)c(O)c(C)c1 (stereo not given)
inactive: [1] > 100 µM | [3] > 100 µM | [4] > 100 µM | [5] > 100 µM | [6] 53.3 µM | [7] > 100 µM | [8] > 100 µM | [9] > 100 µM | [10] > 100 µM | [11] > 100 µM | [12] > 100 µM | [13] > 100 µM | [15] > 100 µM | [16] 60.1 µM

O=[N+]([O-])c1cc(Cl)ccc1S(=O)(=O)c1ccc(Cl)cc1[N+](=O)[O-]
inactive: [1] 19.8 µM | [2] 15.7 µM | [3] 14.2 µM | [4] 15 µM | [5] 15.1 µM | [6] 15.1 µM | [7] 18.1 µM | [8] 18 µM | [9] 15.7 µM | [10] 17.3 µM | [17] 19.7 µM | [11] 16.1 µM | [12] 15.2 µM | [13] 18 µM | [14] 16.8 µM | [16] 15.7 µM

Clc1ccc2c(c1)C1C(CO2)C(c2ccccc2)=NN1c1ccccc1 (stereo not given)
inactive: [1] 34.8 µM | [2] 16.1 µM | [3] 31.6 µM | [4] 42.5 µM | [5] 35.6 µM | [6] 24.2 µM | [7] 54.1 µM | [8] 26.9 µM | [10] 23 µM | [11] 36.2 µM | [12] 33.7 µM | [14] 76.9 µM | [15] 43.8 µM | [16] 20.1 µM

O=C1C2Cc3ccccc3CN2C(=O)N1CCN1CCCC1 (stereo not given)
inactive: [1] > 100 µM | [3] > 100 µM | [4] > 100 µM | [5] > 100 µM | [7] > 100 µM | [8] > 100 µM | [9] > 100 µM | [10] > 100 µM | [17] 64.1 µM | [11] > 100 µM | [12] > 100 µM | [13] > 100 µM | [15] > 100 µM

COc1ccc(/C=C/CO)cc1OC
inactive: [1] > 100 µM | [3] > 100 µM | [4] > 100 µM | [5] > 100 µM | [6] > 100 µM | [7] > 100 µM | [8] > 100 µM | [9] > 100 µM | [10] > 100 µM | [12] > 100 µM | [13] > 100 µM | [14] > 100 µM | [15] > 100 µM | [16] > 100 µM

Reference: ChEMBL document CHEMBL1201862, “PubChem BioAssay data set” (2004)
